In patent US20240101572A1, “DIHYDROOXADIAZINONE COMPOUND AND PHARMACEUTICAL USE THEREOF” (Japan Tobacco Inc., priority 2022, published 2024):
Where two headings read alike, the source gives them in different places.

Columns and labels:
full-length human PLD1 = full-length human PLD1 (Homo sapiens (Human), UniProt Q13393); assay: Evaluation of human PLD1 enzyme inhibitory activity (Amplex Red / choline oxidase fluorescence); format: biochemical
Method: A method for measuring human PLD1 enzyme inhibitory activity using an enzyme in which a FLAG-tag is added to the N-terminus of full-length human PLD1 (1-1036 amino acids) is shown below.
(§1) DNA fragment in which a FLAG-tag sequence is added to the 5′-end of full-length human PLD1 was amplified by PCR method, using commercially available human PLD1 gene (Promega KK) as a template. The amplified DNA fragment was fused with vector pVL1393 for baculovirus production (Pharmingen) digested with BamHI and EcoRI, using In-Fusion HD Cloning Kit (Takara Bio). The full-length human PLD1-expression plasmid DNA for baculovirus was isolated from Escherichia coli DH5a (TOYOBO) transformed with the obtained In-Fusion reaction product. Next, DNA fragment in which a FLAG-tag sequence is added to the 5′-end of full-length human PLD1 was amplified by PCR method, using the full-length human PLD1-expression plasmid DNA for baculovirus as a template. The amplified DNA fragment was fused with a DNA fragment in which a linker sequence is introduced into pcDNA3.4-TOPO (Life Technologies), using In-Fusion HD Cloning Kit (Takara Bio). The full-length human PLD1-expression plasmid DNA for animal cells was isolated from Escherichia coli DH5a transformed with the obtained In-Fusion reaction product. The base sequence of the full-length human PLD1 cloned into vector was determined by a Dye Terminator method using BigDye Terminator v3.1 Cycle Sequencing Kit (Applied Biosystems). The determined sequence was a sequence in which the FLAG-tag sequence was inserted at the 5′-end of the full-length human PLD1 (GenBank Accession Number: NM_001130081).
(§2) Expi293F cells (Life Technologies) were cultured with shaking using Expi293 Expression Medium (Life Technologies) as a medium at 37° C. in the presence of 8% CO2. The gene introduction reagent PEI was prepared by dissolving Polyethylenimine Max (nominally MW 40,000) (Polysciences) in MilliQ water, adjusting the pH of the solution to 7.0 with NaOH to obtain a 1 mg/mL solution, and then filtering the solution through 0.22 μm filter. The full-length human PLD1-expression plasmid DNA for animal cells was transfected into Expi293F cells using PEI, and after 48 hours of shaking culture, the cells were collected and stored at −80° C.
(§3) To the full-length human PLD1-expressed cells was added a Homogenate buffer (20 mmol/L Na-phosphate pH 7.5, 250 mmol/L NaCl, 1 mmol/L MgCl2, 1% β-OG, 0.05 mmol/L DTT+complete EDTA-free (Roche Diagnostics K.K.)), and the cells were lysed by Microfluidizer Processor M-110EH (Mizuho Kogyo Co., Ltd.). The lysate was centrifuged at 10,100×g at 4° C. for 15 minutes, and the supernatant was collected and filtered through 0.45 μm filter. To the centrifuged supernatant was added ANTI-FLAG M2 Affinity Gel (SIGMA-Aldrich) resin equilibrated with a Homogenate buffer, and the mixed solution was stirred at 4° C. for 1 hr or more. The mixed solution was loaded onto Poly-Prep column, and the resin was washed with a Wash buffer (20 mmol/L Na-phosphate pH 7.5, 150 mmol/L NaCl, 1 mmol/L MgCl2, 0.02% Triton, 0.05 mmol/L DTT). A Wash buffer containing 400 μg/mL DYKDDDDK Peptide (Scrum Inc.) was added to the column to elute the protein bound to the resin. The eluted fractions were subjected to SDS-PAGE followed by CBB staining to identify the fractions containing the full-length human PLD1. The eluted fractions of the full-length human PLD1 were collected and concentrated using Amicon Ultra-15 100k (Merck Millipore). The concentrated fractions were collected, flash-frozen in liquid nitrogen and stored at −80° C.
(§4) A DMSO or test substance solution (the DMSO final concentration: 5%) prepared by diluting DMSO or test substance with an Assay buffer (50 mmol/L HEPES pH 7.5, 80 mmol/L KCl, 3 mmol/L EGTA, 3.6 mmol/L MgCl2, 0.01% NP-40, 0.1% BSA), and the solution was added to a 384 well Assay Plate (Black, Polystyrene, Non-Treated, Cat No. 3573, Corning) by 5 μL/well. […]

full-length human PLD2 = full-length human PLD2 (Homo sapiens (Human), UniProt O14939); assay: Evaluation of human PLD2 enzyme inhibitory activity (Amplex Red / choline oxidase fluorescence); format: biochemical
Chain of full-length human PLD2 (O14939 whole entry, the tested form may be a part): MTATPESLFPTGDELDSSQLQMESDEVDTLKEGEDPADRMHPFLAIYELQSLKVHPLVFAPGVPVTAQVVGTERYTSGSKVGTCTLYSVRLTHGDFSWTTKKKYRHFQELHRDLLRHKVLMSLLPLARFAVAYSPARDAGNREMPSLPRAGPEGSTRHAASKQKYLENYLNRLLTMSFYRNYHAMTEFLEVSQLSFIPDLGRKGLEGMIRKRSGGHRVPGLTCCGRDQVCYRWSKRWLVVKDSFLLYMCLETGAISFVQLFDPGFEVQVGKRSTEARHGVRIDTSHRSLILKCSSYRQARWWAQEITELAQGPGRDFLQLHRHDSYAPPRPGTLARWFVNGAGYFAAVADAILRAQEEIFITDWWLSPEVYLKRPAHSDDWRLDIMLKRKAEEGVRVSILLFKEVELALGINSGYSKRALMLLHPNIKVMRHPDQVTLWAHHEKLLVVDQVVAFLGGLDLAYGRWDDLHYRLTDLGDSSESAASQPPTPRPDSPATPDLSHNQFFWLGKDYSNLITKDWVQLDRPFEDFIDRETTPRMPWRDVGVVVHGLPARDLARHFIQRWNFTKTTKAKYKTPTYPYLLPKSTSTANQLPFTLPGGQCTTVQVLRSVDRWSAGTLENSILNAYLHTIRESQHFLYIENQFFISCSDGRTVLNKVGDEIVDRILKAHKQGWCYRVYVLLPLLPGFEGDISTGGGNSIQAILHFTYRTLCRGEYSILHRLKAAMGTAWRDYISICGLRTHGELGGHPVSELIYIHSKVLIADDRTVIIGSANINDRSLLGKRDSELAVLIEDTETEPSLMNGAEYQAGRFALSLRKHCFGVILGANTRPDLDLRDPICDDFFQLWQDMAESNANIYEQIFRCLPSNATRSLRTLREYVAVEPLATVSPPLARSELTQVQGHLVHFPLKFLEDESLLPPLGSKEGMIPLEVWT
Method: A method for measuring human PLD2 enzyme inhibitory activity using an enzyme in which a FLAG-tag is added to the N-terminus of full-length human PLD2 (1-933 amino acids) is shown below.
as §1, with “PLD2” for “PLD1”, “PLD2-expression” for “PLD1-expression”, “NM 002663).” for “NM_001130081).”
as §2, with “PLD2-expression” for “PLD1-expression”
as §3, with “PLD2-expressed” for “PLD1-expressed”, “PLD2.” for “PLD1.”, “PLD2” for “PLD1”
as §4

[1] = full-length human PLD1 enzyme, read-out: PLD1 IC50
[2] = full-length human PLD2 enzyme, read-out: PLD2 IC50

Chain of full-length human PLD1 (Q13393 other isoform, or with tags, fused parts or gaps): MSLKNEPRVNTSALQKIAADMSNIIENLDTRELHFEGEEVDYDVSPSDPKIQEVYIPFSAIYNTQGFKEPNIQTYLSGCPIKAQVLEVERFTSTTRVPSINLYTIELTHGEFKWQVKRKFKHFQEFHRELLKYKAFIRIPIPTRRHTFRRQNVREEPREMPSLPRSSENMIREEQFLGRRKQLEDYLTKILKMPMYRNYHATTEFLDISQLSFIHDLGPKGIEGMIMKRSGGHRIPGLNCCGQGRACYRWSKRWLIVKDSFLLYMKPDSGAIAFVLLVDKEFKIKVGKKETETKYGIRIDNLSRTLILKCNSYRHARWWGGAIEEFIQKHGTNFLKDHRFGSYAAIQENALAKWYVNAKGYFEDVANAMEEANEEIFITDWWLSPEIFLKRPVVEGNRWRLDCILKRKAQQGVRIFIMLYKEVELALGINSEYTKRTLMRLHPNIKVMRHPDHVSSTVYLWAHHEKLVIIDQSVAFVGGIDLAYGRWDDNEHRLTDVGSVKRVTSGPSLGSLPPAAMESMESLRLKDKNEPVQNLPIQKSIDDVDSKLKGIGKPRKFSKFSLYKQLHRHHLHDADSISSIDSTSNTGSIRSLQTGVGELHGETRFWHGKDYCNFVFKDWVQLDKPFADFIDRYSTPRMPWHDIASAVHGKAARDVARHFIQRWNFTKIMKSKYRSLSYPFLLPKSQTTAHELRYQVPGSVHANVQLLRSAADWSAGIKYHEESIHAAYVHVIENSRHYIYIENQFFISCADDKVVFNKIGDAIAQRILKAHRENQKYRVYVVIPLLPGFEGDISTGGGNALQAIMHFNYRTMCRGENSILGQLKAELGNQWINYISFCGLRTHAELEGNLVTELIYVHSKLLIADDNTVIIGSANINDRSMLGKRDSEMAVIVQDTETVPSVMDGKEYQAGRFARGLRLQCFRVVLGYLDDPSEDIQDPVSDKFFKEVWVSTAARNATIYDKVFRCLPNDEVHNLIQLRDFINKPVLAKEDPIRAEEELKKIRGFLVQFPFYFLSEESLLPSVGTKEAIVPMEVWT

With `Cc1cc(C(=O)N[C@@H](C)C[C@H]2CC[C@]3(CC2)OC(=O)NN=C3c2cc(OC(F)F)ccc2C)[nH]n1` [Example 215] the IC50 (full-length human PLD1; [1]) was < 10 nM and the IC50 (full-length human PLD2; [2]) was < 10 nM.

With `COc1cc(C)c(C2=NNC(=O)O[C@]23CC[C@@H](C[C@H](C)NC(=O)N2CCn4nncc4C2)CC3)cn1` [Example 235] the IC50 (full-length human PLD1; [1]) was 35 nM and the IC50 (full-length human PLD2; [2]) was 13 nM.

For `C[C@@H](C[C@H]1CC[C@]2(CC1)OC(=O)NN=C2c1ccccc1SC(F)(F)F)NC(=O)c1cnn(C)c1` [Example 2-020], the IC50 (full-length human PLD1; [1]) was 21 nM and the IC50 (full-length human PLD2; [2]) was 16 nM.

For `CNC(=O)C(=O)N[C@@H](C)CN1CCC2(CC1)OC(=O)NN=C2c1ncccc1Br` [Example 2-028], the IC50 (full-length human PLD1; [1]) was 45 nM and the IC50 (full-length human PLD2; [2]) was 32 nM.

Compound `COc1cc(C)c(C2=NNC(=O)O[C@]23CC[C@@H](C[C@H](C)NC(=O)N2CCn4ncnc4C2)CC3)cn1` [Example 257] has an IC50 (full-length human PLD1; [1]) of 262 nM and an IC50 (full-length human PLD2; [2]) of 215 nM.

In the case of `COc1cc(C)c(C2=NNC(=O)O[C@]23CC[C@@H](C[C@H](C)NC(=O)N2CCc4ccccc4C2)CC3)cn1` [Example 236], the IC50 (full-length human PLD1; [1]) is reported as 15 nM and the IC50 (full-length human PLD2; [2]) is reported as < 10 nM.

`C[C@@H](C[C@H]1CC[C@]2(CC1)OC(=O)NN=C2c1cc(C#N)ccc1Br)NC(=O)NC1CC1` [Example 222, 1-((S)-1-(cis-5-(2-bromo-5-cyanophenyl)-2-oxo-1-oxa-3,4-diazaspiro[5.5]undec-4-en-9-yl)propan-2-yl)-3-cyclopropylurea] showed an IC50 (full-length human PLD1; [1]) of 59 nM and an IC50 (full-length human PLD2; [2]) of 171 nM.

For `Cc1cc(C(=O)N[C@@H](C)CN2CCC3(CC2)OC(=O)NN=C3c2cc(C#N)ccc2Cl)[nH]n1` [Example 2-007], the IC50 (full-length human PLD1; [1]) was 28 nM and the IC50 (full-length human PLD2; [2]) was < 10 nM.

In the case of `CNC(=O)C(=O)N[C@@H](C)C[C@H]1CC[C@]2(CC1)OC(=O)NN=C2c1cc(C(=O)N(C)C)ccc1Br` [Example 2-036], the IC50 (full-length human PLD1; [1]) is reported as 17 nM and the IC50 (full-length human PLD2; [2]) is reported as < 10 nM.

For `C[C@@H](CN1CCC2(CC1)OC(=O)NN=C2c1ccc(F)cc1Br)NC(=O)c1cnn(C(F)(F)F)c1` [Example 255], the IC50 (full-length human PLD1; [1]) was 32 nM and the IC50 (full-length human PLD2; [2]) was 14 nM.

For `CC(C)c1cc(F)ccc1C1=NNC(=O)O[C@]12CC[C@@H](C[C@H](C)NC(=O)c1cc(Cl)no1)CC2` [Example 134], the IC50 (full-length human PLD1; [1]) was 21 nM and the IC50 (full-length human PLD2; [2]) was 30 nM.

With `CNC(=O)C(=O)N[C@@H](C)C[C@H]1CC[C@]2(CC1)OC(=O)NN=C2c1cc(C)ccc1C` [Example 126] the IC50 (full-length human PLD1; [1]) was 13 nM and the IC50 (full-length human PLD2; [2]) was < 10 nM.

Compound `Cc1cccnc1C1=NNC(=O)O[C@]12CC[C@@H](C[C@H](C)NC(=O)c1cc(Cl)no1)CC2` [Example 148] has an IC50 (full-length human PLD1; [1]) of 20 nM and an IC50 (full-length human PLD2; [2]) of 18 nM.

With `C[C@@H](C[C@H]1CC[C@]2(CC1)OC(=O)NN=C2c1ccc(F)cc1Br)NC(=O)OC(C)(C)C` [Example 34] the inhibition at 10 µM (full-length human PLD1; 10 μM compound, read-out: PLD1 inhibition rate at 10 μM) was 36%, the inhibition at 10 µM (full-length human PLD1; read-out: inhibition rate of PLD1 at 10 μM compound) was 36% and the inhibition at 10 µM (full-length human PLD2; 10 μM compound, read-out: PLD2 inhibition rate at 10 μM) was 17%. For the same compound, the inhibition at 10 µM (full-length human PLD2; read-out: inhibition rate of PLD2 at 10 μM compound) was 17%.

`Cc1cc(C(=O)N[C@@H](C)C[C@H]2CC[C@]3(CC2)OC(=O)NN=C3c2cccc(Br)c2)[nH]n1` [Example 25] was tested, and the IC50 (full-length human PLD1; [1]) was 108 nM and the IC50 (full-length human PLD2; [2]) was 101 nM.

In the case of `Cc1cc(C(=O)N[C@@H](C)C[C@H]2CC[C@]3(CC2)OC(=O)NN=C3c2ccccc2Br)[nH]n1` [Example 27], the IC50 (full-length human PLD1; [1]) is reported as 14 nM and the IC50 (full-length human PLD2; [2]) is reported as 13 nM.

For `CNC(=O)C(=O)N[C@@H](C)C[C@H]1CC[C@]2(CC1)OC(=O)NN=C2c1cc(Br)ccc1C` [Example 212], the IC50 (full-length human PLD1; [1]) was < 10 nM and the IC50 (full-length human PLD2; [2]) was < 10 nM.

With `[2H]C([2H])([2H])NC(=O)C(=O)N[C@@H](C)C[C@]1(C#N)CC[C@@]2(CC1)OC(=O)NN=C2c1cc(F)ccc1Br` [Example 2-133] the IC50 (full-length human PLD1; column 1 of continuation tables 2-12 to 2-14, read-out: human PLD1 enzyme inhibitory activity IC50) was 14 nM and the IC50 (full-length human PLD2; column 2 of continuation tables 2-12 to 2-14, read-out: human PLD2 enzyme inhibitory activity IC50) was < 10 nM.

For `Cc1cc(C(=O)N[C@@H](C)C[C@H]2CC[C@]3(CC2)OC(=O)NN=C3c2cnc(N3CCC(F)(F)C3)cc2C)[nH]n1` [Example 238], the IC50 (full-length human PLD1; [1]) was 12 nM and the IC50 (full-length human PLD2; [2]) was < 10 nM.

With `CNC(=O)C(=O)N[C@@H](C)C[C@]1(C#N)CC[C@@]2(CC1)OC(=O)NN=C2c1cc(OC(F)(F)F)ccc1Br` [Example 2-080] the IC50 (full-length human PLD1; [1]) was < 10 nM and the IC50 (full-length human PLD2; [2]) was < 10 nM.

Work on `CNC(=O)C(=O)N[C@@H](C)[C@@H](C)N1CCC2(CC1)OC(=O)NN=C2c1ccc(F)cc1Br` [Example 291] yielded an IC50 (full-length human PLD1; [1]) of 150 nM and an IC50 (full-length human PLD2; [2]) of 234 nM.

`Cc1cc(C(=O)N[C@@H](C)C[C@H]2CC[C@]3(CC2)OC(=O)NN=C3c2cnc(N3CCOCC3)cc2C)[nH]n1` [Example 221] was tested, and the IC50 (full-length human PLD1; [1]) was 16 nM and the IC50 (full-length human PLD2; [2]) was < 10 nM.

In the case of `CNC(=O)C(=O)NC[C@@H](C)N1CCC2(CC1)OC(=O)NN=C2c1ccc(C#N)cc1Br` [Example 330], the IC50 (full-length human PLD1; [1]) is reported as 3150 nM and the IC50 (full-length human PLD2; [2]) is reported as 26 nM.

`Cc1ncccc1C1=NNC(=O)O[C@]12CC[C@@H](C[C@H](C)NC(=O)c1cc3ccccc3o1)CC2` [Example 104] showed an IC50 (full-length human PLD1; [1]) of 75 nM and an IC50 (full-length human PLD2; [2]) of 217 nM.
